Literature values in patent publication US10759750B2, “Beta lactams as modulators of glutamate uptake and methods for use thereof” (Temple University—Of The Commonwealth System of Higher …, priority 2016, dated 2020).
Where two headings read alike, the source gives them in different places.

Experiments:
[1] = test system: amyotrophic lateral sclerosis (ALS); conditions: ALS patients; 50 mg of Riluzole daily and palliative drugs; after 15 months of treatment

free, unbound cerebrospinal fluid/plasma ratio (based on AUCs (Lutsar and Friedland, 2000)) [%]	free, unbound cerebrospinal fluid/plasma ratio (based on Cmax (Chadwick et al., 1983))	Compound	increase in life expectancy [1]
–	–	Nc1nc2ccc(OC(F)(F)F)cc2s1 [Riluzole]	2-3 months
1	2-13%	CO/N=C(\C(=O)N[C@@H]1C(=O)N2C(C(=O)O)=C(CSc3nc(=O)c(=O)[nH]n3C)CS[C@H]12)c1csc(N)n1 [ceftriaxone]	–
